Data taken from patent US3957785A, “Bβ-Pyrimidino-aminomethyl-10α-ergoline and 10α-methoxyergoline derivatives” (priority 1971, dated 1976).
Where “and” joins values, the source holds several entries; their conditions need not be identical. Equal entries are not always repeated. Where two headings read alike, the source gives them in different places.

Assays:
[1] = system: lethal effects caused by adrenaline; assay: adrenolytic activity in vivo on the rat: reduction of lethal effects caused by adrenaline; conditions: read-out: ID50 (dose reducing by 50% the lethal effects caused by adrenaline)
Procedure: (§1) The adrenolytic activity of the compounds of the invention was also determined in vivo on the rat in comparison with dihydroergotamine and nicergoline. Table 2 reports the doses in mg/kg (ID50) able to reduce by 50% the lethal effects caused by adrenaline after oral (os) and intravenous (i.v.) administration of these compounds as compared with dihydroergotamine and with nicergoline, i.e., 1,6-dimethyl-8 -(5'-bromonicotinoyloxymethyl)-10 -methoxyergoline (Br. J. Pharmac, 34, 700, 1968).

[2] = acute toxicity LD50 in rats; conditions: rat, in vivo
[3] = system: isolated guinea pig seminal vescicle; assay: inhibition of the spasmogen effect caused by adrenaline on isolated guinea pig seminal vescicle (adrenolytic activity in vitro); parameters: unit: μg/ml; conditions: isolated guinea pig seminal vescicle in physiological solution
Procedure: The compounds of the present invention have a high and prolonged adrenolytic activity and a low toxicity and are therefore useful in therapy. This adrenolytic activity was tested on several of the present compounds in vitro in comparison with dihydroergotamine on isolated guinea pig seminal vescicle suspended in a physiological solution.
Table 1 reports the values of concentrations, in μg/ml., which are able to produce a 50% inhibition (IC50) of the spasmogen effect caused by adrenaline.

[4] = analgesic activity, writhing test; format: in vivo; conditions: for Analgesic Activity, Writhing, relative to D-propoxyphene: D-propoxyphene assigned the value of 1; for Analgesic Activity, Writhing, relative to morphine: morphine assigned the value of 1
Procedure: (§2) The analgesic activity was evaluated by means of the hot plate test and the writhing test, the data being given in comparison with morphine and D-propoxyphene.
(§3) In the hot plate and writhing tests, the comparison compounds morphine and D-propoxyphene have been arbitrarily assigned the value of 1. Thus, in the hot plate test, the compound 1,6-dimethyl-8β-(2-pyrimidino-aminomethyl)-10α-ergoline has the same activity as both morphine and D-propoxyphene, while in the writhing test that compound has 1/2 the activity of morphine and 5 times the activity of D-propoxyphene.

hypertensive rat = assay: hypotensive activity on the hypertensive rat; format: in vivo; conditions: po, read-out: Hypotensive Activity, Active Dose (dose causing a pressure drop of about 30-40 mmHg)
Procedure: The hypotensive activity was tested on the hypertensive rat; the reported data being the dose, expressed in mg/kg per os, which causes a pressure drop of about 30-40 mmHg.

lethal adrenaline dose = assay: percentage of animals protected against lethal adrenaline dose, hours after administration; format: in vivo, rat
Procedure: as §1
Some of the compounds reported in Table 2 have a long lasting effect of up to 24 hours as shown by the data contained in Table 3.
Percentage of animals protected against lethal adrenaline dose

adrenalin = assay: submaximal inhibiting dosage protecting 80% of rats against adrenalin injected 8 hours after administration; format: in vivo; conditions: Rattus norvegicus, po, read-out: ID (submaximal inhibiting dosage which protects 80% of the tested animals)
Procedure: This greater stability was confirmed by the determination of the submaximal inhibiting dosage which protects 80% of the tested animals (rats) against a single dose of 200 mg/Kg of body weight of adrenalin injected 8 hours after administration of the tested compounds according to the invention.

[5] = analgesic activity, hot plate test; format: in vivo
Procedure: as §2, §3

[6] = Arcamone et al. Bioch. Pharmac. 21, 2205, 1972; cited from earlier work
[7] = 0.5 mg/Kg per os, 1 hour after administration
[8] = 0.5 mg/Kg per os, 2 hours after administration
[9] = 0.5 mg/Kg per os, 4 hours after administration
[10] = 0.5 mg/Kg per os, 8 hours after administration
[11] = 0.1 mg/Kg per os, 1 hour after administration
[12] = 0.1 mg/Kg per os, 2 hours after administration
[13] = 0.5 mg/Kg per os, 0.5 hours after administration

| Compound | ED50 ([1]; iv) | ED50 ([1]; po, os) | LD50 ([2]; iv) | LD50 ([2]; po, os) | TC50 (concentration producing 50% inhibition (IC50) of the spasmogen effect caused by adrenaline) [3] | ED80 (adrenalin; 8 h) | also measured |
| --- | --- | --- | --- | --- | --- | --- | --- |
| COC12CC(CNc3ncccn3)CN(C)C1Cc1cn(C)c3cccc2c13 (stereo not drawn) [1,6-dimethyl-8β -(2-pyrimidino-aminomethyl)-10α -methoxyergoline] | 0.2 mg/kg | 1 mg/kg | 25 mg/kg | 250 mg/kg | 0.005 μc/ml | – | – |
| COC12CC(CNc3ncc(Br)cn3)CN(C)C1Cc1cn(C)c3cccc2c13 (stereo not drawn) [1,6-dimethyl-8β -(5-bromo-2-pyrimidino-aminomethyl)-10α -methoxyergoline] | 0.08 mg/kg | 0.32 mg/kg | 50 mg/kg | 230 mg/kg | 0.005 μc/ml | – | – |
| COC12CC(CNc3ncc(C#N)cn3)CN(C)C1Cc1cn(C)c3cccc2c13 (stereo not drawn) [1,6-dimethyl-8β -(5-cyano-2-pyrimidino-aminomethyl)-10α -methoxyergoline] | 0.015 mg/kg | 0.2 mg/kg | 38 mg/kg | 160 mg/kg | 0.0001 μc/ml | 0.5 mg/kg | Analgesic Activity, Writhing, relative to D-propoxyphene [4]: 1; Analgesic Activity, Writhing, relative to morphine [4]: 0.2; ED (30-40 mmHg pressure drop) (hypertensive rat; Rattus norvegicus): 1 to 2.5 mg/kg; % survivors (lethal adrenaline dose; 0.2 mg/Kg per os, 2 hours after administration): 100%; % survivors (lethal adrenaline dose; 0.2 mg/Kg per os, 4 hours after administration): 90%; % survivors (lethal adrenaline dose; [7]): 80%; % survivors (lethal adrenaline dose; [8]): 90%; % survivors (lethal adrenaline dose; [9]): 80%; % survivors (lethal adrenaline dose; [10]): 80% |
| Cc1cc(C)nc(NCC2CC3c4cccc5c4c(cn5C)CC3N(C)C2)n1 (stereo not drawn) [1,6-dimethyl-8β(4,6-dimethyl-2-pyrimidino-aminomethyl)-10α -ergoline] | – | 1.25 mg/kg | – | – | – | – | % survivors (lethal adrenaline dose; 2.5 mg/Kg per os, 1 hour after administration): 80%; % survivors (lethal adrenaline dose; 2.5 mg/Kg per os, 2 hours after administration): 60%; % survivors (lethal adrenaline dose; 2.5 mg/Kg per os, 4 hours after administration): 30%; % survivors (lethal adrenaline dose; 5 mg/Kg per os, 1 hour after administration): 100%; % survivors (lethal adrenaline dose; 5 mg/Kg per os, 2 hours after administration): 80%; % survivors (lethal adrenaline dose; 5 mg/Kg per os, 4 hours after administration): 50%; % survivors (lethal adrenaline dose; 5 mg/Kg per os, 8 hours after administration): 20%; % survivors (lethal adrenaline dose; 10 mg/Kg per os, 1 hour after administration): 100%; % survivors (lethal adrenaline dose; 10 mg/Kg per os, 2 hours after administration): 100%; % survivors (lethal adrenaline dose; 10 mg/Kg per os, 4 hours after administration): 60% |
| CN1CC(CNc2ncccn2)CC2c3cccc4c3c(cn4C)CC21 (stereo not drawn) [1,6-dimethyl-8β-(2-pyrimidino-aminomethyl)-10α -ergoline] | – | – | – | – | – | – | Analgesic Activity, Writhing, relative to D-propoxyphene [4]: 5; Analgesic Activity, Writhing, relative to morphine [4]: 0.5 and 1/2; ED (30-40 mmHg pressure drop) (hypertensive rat; hypertensive rat, per os): 5 to 10 mg/kg |
| CN1CC(CNc2ncc(N)cn2)CC2c3cccc4c3c(cn4C)CC21 (stereo not drawn) [1,6-dimethyl-8β-(5-amino-2-pyrimidino-aminomethyl)-10α-ergoline] | 0.18 mg/kg | 0.5 mg/kg | 18 mg/kg | 140 mg/kg | – | 1 mg/kg | – |
| CN1CC(CNc2ncc(Cl)cn2)CC2c3cccc4c3c(cn4C)CC21 (stereo not drawn) [1,6-dimethyl-8β-(5-chloro-2-pyrimidino-aminomethyl)-10α -ergoline] | – | 0.14 mg/kg | – | – | – | 1 mg/kg | – |
| CN1CC(CNc2ncc(C#N)cn2)CC2c3cccc4c3c(cn4C)CC21 (stereo not drawn) [1,6-dimethyl-8β-(5-cyano-2-pyrimidino-aminomethyl)-10α -ergoline] | 0.05 mg/kg | 0.05 mg/kg | 25 mg/kg | 35 mg/kg | 0.005 μc/ml | – | ED (30-40 mmHg pressure drop) (hypertensive rat; Rattus norvegicus): 2.5 to 5 mg/kg |
| Cc1cnc(NCC2CC3c4cccc5c4c(cn5C)CC3N(C)C2)nc1 (stereo not drawn) [1,6-dimethyl-8β-(5-methyl-2-pyrimidino-aminomethyl)-10 α-ergoline] | 0.15 mg/kg | 0.1 mg/kg | 35 mg/kg | 140 mg/kg | – | – | Analgesic Activity, Writhing, relative to D-propoxyphene [4]: 5; Analgesic Activity, Writhing, relative to morphine [4]: 0.5; ED (30-40 mmHg pressure drop) (hypertensive rat; hypertensive rat, per os): 5 to 10 mg/kg; Analgesic Activity, Hot plate, relative to D-propoxyphene ([5]; D-propoxyphene assigned the value of 1): 5; Analgesic Activity, Hot plate, relative to morphine ([5]; morphine assigned the value of 1): 1 |
| COC12CC(CNc3ncc(C)cn3)CN(C)C1Cc1cn(C)c3cccc2c13 (stereo not drawn) [1,6-dimethyl-8β-(5-methyl-2-pyrimidino-aminomethyl)-10α -methoxyergoline] | 0.1 mg/kg | 0.1 mg/kg | 18 mg/kg | – | 0.001 μc/ml | – | – |
| CN1CC(CNc2ncc([N+](=O)[O-])cn2)CC2c3cccc4c3c(cn4C)CC21 (stereo not drawn) [1,6-dimethyl-8β-(5-nitro-2-pyrimidino-aminomethyl)-10α -ergoline] | 0.09 mg/kg | 0.04 mg/kg | – | – | 0.007 μc/ml | 0.5 mg/kg | % survivors (lethal adrenaline dose; 0.1 mg/Kg per os, 0.5 hours after administration): 50%; % survivors (lethal adrenaline dose; [11]): 90%; % survivors (lethal adrenaline dose; [12]): 60%; % survivors (lethal adrenaline dose; 0.1 mg/Kg per os, 4 hours after administration): 70%; % survivors (lethal adrenaline dose; 0.1 mg/Kg per os, 8 hours after administration): 60%; % survivors (lethal adrenaline dose; 0.1 mg/Kg per os, 16 hours after administration): 10%; % survivors (lethal adrenaline dose; [13]): 100%; % survivors (lethal adrenaline dose; [7]): 100%; % survivors (lethal adrenaline dose; [8]): 100%; % survivors (lethal adrenaline dose; [9]): 90%; % survivors (lethal adrenaline dose; [10]): 80%; % survivors (lethal adrenaline dose; 0.5 mg/Kg per os, 16 hours after administration): 30%; % survivors (lethal adrenaline dose; 0.5 mg/Kg per os, 24 hours after administration): 20% |
| COC12CC(CNc3ncc([N+](=O)[O-])cn3)CN(C)C1Cc1cn(C)c3cccc2c13 (stereo not drawn) [1,6-dimethyl-8β-(5-nitro-2-pyrimidino-aminomethyl)-10α -methoxyergoline] | 0.2 mg/kg | < 0.1 mg/kg | 28 mg/kg | 200 mg/kg | 0.001 μc/ml | – | ED (30-40 mmHg pressure drop) (hypertensive rat; Rattus norvegicus): 1 to 2.5 mg/kg; % survivors (lethal adrenaline dose; [11]): 70%; % survivors (lethal adrenaline dose; [12]): 80%; % survivors (lethal adrenaline dose; [13]): 100%; % survivors (lethal adrenaline dose; [8]): 100%; % survivors (lethal adrenaline dose; [9]): 90%; % survivors (lethal adrenaline dose; [10]): 40% |
| CN1C[C@H](C(=O)N[C@]2(C)O[C@@]3(O)[C@@H]4CCCN4C(=O)[C@H](Cc4ccccc4)N3C2=O)C[C@@H]2c3cccc4[nH]cc(c34)C[C@H]21 [dihydroergotamine, reference compound] | 0.08 mg/kg | 15 mg/kg | – | – | 0.015 μc/ml | > 20 mg/kg | – |
| CO[C@]12C[C@@H](COC(=O)c3cncc(Br)c3)CN(C)[C@@H]1Cc1cn(C)c3cccc2c13 [nicergoline, 1,6-dimethyl-8β-(5'-bromonicotinoyloxymethyl) 10α-methoxyergoline, reference compound] | 0.024 mg/kg | 7 mg/kg | – | – | – | – | metabolism in the presence of blood in vitro [6]: rapidly metabolized; ED80 (adrenalin; peros in rats after 8 hours, single dose of 200 mg/Kg adrenalin): > 20 mg/kg |
